Laboratory results from ChEMBL document CHEMBL1201862, “PubChem BioAssay data set” (2004).
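Dose response: 5 concentrations. Exposure: 48 h. Format: 96-well plates. Endpoint: linear interpolation; highest concentration if not reached. Here, GI50 denotes the concentration required for 50% inhibition of growth.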 Activity calls are given as the source filed them. Rule as the data show it: active = GI50 up to about 1.1 µM and inactive = higher.

Experiments:
Assay in all cases: inhibition of tumour cell growth, NCI panel, 48 h
[1] = tested on: HOP-92
[2] = tested on: OVCAR-3
[3] = tested on: HCT-116
[4] = tested on: SF-539
[5] = tested on: UACC-62
[6] = tested on: SK-OV-3
[7] = tested on: SNB-75
[8] = tested on: DU-145
[9] = tested on: RPMI-8226
[10] = tested on: Malme-3M
[11] = tested on: K562
[12] = tested on: SK-MEL-5
[13] = tested on: BT-549
[14] = tested on: MDA-N
[15] = tested on: MCF7
[16] = tested on: NCI/ADR-RES
[17] = tested on: HOP-62
[18] = tested on: Hs-578T
[19] = tested on: U-251
[20] = tested on: RXF 393

## CSc1ccc(-c2cc(-c3nc4ccccc4[nH]3)no2)cc1
[1]
  GI50: 50.6 µM (inactive)
[2]
  GI50: 22.1 µM (inactive)
[3]
  GI50: 32.5 µM (inactive)
[4]
  GI50: 24.7 µM (inactive)
[5]
  GI50: 16.4 µM (inactive)
[6]
  GI50: 70.5 µM (inactive)
[7]
  GI50: 37.6 µM (inactive)
[8]
  GI50: 13.6 µM (inactive)
[9]
  GI50: 24.4 µM (inactive)
[10]
  GI50: 35 µM (inactive)
[11]
  GI50: 22.1 µM (inactive)
[12]
  GI50: 15.9 µM (inactive)
[13]
  GI50: 19.6 µM (inactive)
[14]
  GI50: 26.9 µM (inactive)
[15]
  GI50: 9.02 µM (inactive)
[16]
  GI50: 23.2 µM (inactive)
[17]
  GI50: 34.4 µM (inactive)
[18]
  GI50: 37.1 µM (inactive)

## N#Cc1ccc(Oc2nc3ccc(C(F)(F)F)cc3nc2-c2ccccc2)cc1
[1]
  GI50: 12.6 µM (inactive)
[2]
  GI50: 21.8 µM (inactive)
[3]
  GI50: 15.3 µM (inactive)
[4]
  GI50: 29.8 µM (inactive)
[5]
  GI50: 32.6 µM (inactive)
[6]
  GI50: 12.5 µM (inactive)
[7]
  GI50: 14.1 µM (inactive)
[19]
  GI50: 17.2 µM (inactive)
[8]
  GI50: 17.8 µM (inactive)
[20]
  GI50: 26.4 µM (inactive)
[10]
  GI50: 17.8 µM (inactive)
[11]
  GI50: 22.1 µM (inactive)
[12]
  GI50: 19.7 µM (inactive)
[13]
  GI50: 34.4 µM (inactive)
[14]
  GI50: 23 µM (inactive)
[15]
  GI50: 20.4 µM (inactive)
[16]
  GI50: 16.9 µM (inactive)
[17]
  GI50: 20.3 µM (inactive)
[18]
  GI50: 20.6 µM (inactive)

## COc1cc(NP(=O)(Oc2ccccc2)Oc2ccccc2)ccc1Nc1c2ccccc2nc2c1[nH]c1ccccc12
[1]
  GI50: 0.933 µM (active)
[2]
  GI50: 2.08 µM (inactive)
[3]
  GI50: 3.21 µM (inactive)
[4]
  GI50: 0.36 µM (active)
[5]
  GI50: 2.4 µM (inactive)
[6]
  GI50: 1.88 µM (inactive)
[7]
  GI50: 0.766 µM (active)
[19]
  GI50: 0.524 µM (active)
[8]
  GI50: 0.286 µM (active)
[20]
  GI50: 2.46 µM (inactive)
[10]
  GI50: 4.46 µM (inactive)
[11]
  GI50: 1.62 µM (inactive)
[12]
  GI50: 1.22 µM (inactive)
[13]
  GI50: 5.51 µM (inactive)
[14]
  GI50: 2.77 µM (inactive)
[15]
  GI50: 0.092 µM (active)
[16]
  GI50: 1.65 µM (inactive)
[17]
  GI50: 0.359 µM (active)
[18]
  GI50: 17.1 µM (inactive)

## O=C(c1ccccc1)c1c(-c2ccccc2)n(-c2ccccc2)[nH]c(=O)c1=O
[1]
  GI50: 31.2 µM (inactive)
[2]
  GI50: 37.2 µM (inactive)
[3]
  GI50: > 100 µM (inactive)
[4]
  GI50: 20.2 µM (inactive)
[5]
  GI50: 12.3 µM (inactive)
[6]
  GI50: 34.2 µM (inactive)
[19]
  GI50: 44.5 µM (inactive)
[8]
  GI50: > 100 µM (inactive)
[9]
  GI50: 27.5 µM (inactive)
[10]
  GI50: 22.5 µM (inactive)
[11]
  GI50: 14.8 µM (inactive)
[12]
  GI50: > 100 µM (inactive)
[13]
  GI50: 13.7 µM (inactive)
[14]
  GI50: 50.1 µM (inactive)
[15]
  GI50: 46.7 µM (inactive)
[16]
  GI50: 62.4 µM (inactive)
[17]
  GI50: 28.8 µM (inactive)
[18]
  GI50: 21.6 µM (inactive)

## O=C1OC[C@@H]2[C@@H](O)CCCCCN12
[1]
  GI50: > 100 µM (inactive)
[2]
  GI50: > 100 µM (inactive)
[3]
  GI50: > 100 µM (inactive)
[4]
  GI50: > 100 µM (inactive)
[5]
  GI50: > 100 µM (inactive)
[6]
  GI50: > 100 µM (inactive)
[7]
  GI50: > 100 µM (inactive)
[19]
  GI50: > 100 µM (inactive)
[8]
  GI50: > 100 µM (inactive)
[9]
  GI50: > 100 µM (inactive)
[20]
  GI50: > 100 µM (inactive)
[11]
  GI50: > 100 µM (inactive)
[12]
  GI50: > 100 µM (inactive)
[13]
  GI50: > 100 µM (inactive)
[14]
  GI50: > 100 µM (inactive)
[15]
  GI50: > 100 µM (inactive)
[16]
  GI50: > 100 µM (inactive)
[17]
  GI50: > 100 µM (inactive)
[18]
  GI50: > 100 µM (inactive)

## CCCCCC(=O)N[C@@H](c1ccccc1)C(O)C(=O)OC1C[C@@]2(O)C(OC(=O)c3ccccc3)C3[C@](C)(C(=O)[C@H](O)C(=C1C)C2(C)C)C(OC1OCC(O)C(O)C1O)C[C@H]1OC[C@@]31OC(C)=O (some centres not stated)
[1]
  GI50: 24.6 µM (inactive)
[2]
  GI50: 0.706 µM (active)
[3]
  GI50: 0.516 µM (active)
[4]
  GI50: 0.494 µM (active)
[5]
  GI50: 3.57 µM (inactive)
[6]
  GI50: 3.04 µM (inactive)
[7]
  GI50: 0.147 µM (active)
[19]
  GI50: 1.64 µM (inactive)
[8]
  GI50: 2.88 µM (inactive)
[9]
  GI50: 0.486 µM (active)
[20]
  GI50: 1.98 µM (inactive)
[11]
  GI50: 0.966 µM (active)
[12]
  GI50: 1.9 µM (inactive)
[13]
  GI50: 2.62 µM (inactive)
[14]
  GI50: 0.078 µM (active)
[15]
  GI50: 1.02 µM (active)
[16]
  GI50: > 100 µM (inactive)
[17]
  GI50: 5.05 µM (inactive)
[18]
  GI50: 0.198 µM (active)
